Laboratory results published in the SangsterLogP compilation.

Q: Which logP does the source give for `CCCCCCCCCCCC(=O)OCC` here?
A: 5.71

Q: For `CC/C=C\C/C=C\C/C=C\CCCCCCCC(=O)OC`, which logP is on record?
A: 6.29

Q: Which logP does the source give for `CCCCCCCCCCCCCCCCCCCC(=O)OC` here?
A: 9.3

Q: With `CCCCCCCC/C=C\CCCCCCCC(=O)OC` as the molecule, how does the logP read?
A: 7.45

Q: For `CCCCCCCCCCCC(=O)OCCCC`, which logP is on record?
A: 6.51

Q: With `CCCCCCCC/C=C\CCCCCCCCCCCC(=O)OC` as the molecule, how does the logP read?
A: 9.32

Q: With `CCCCCCCCCCCC(=O)OCC(CC)CCCC` (stereo not given) as the molecule, how does the logP read?
A: 8.03

Q: With `CCCCCCCCCCCC(=O)OC` as the molecule, how does the logP read?
A: 5.41

Q: Which logP does the source give for `CCCCCCCCCC(=O)OC` here?
A: 4.42

Q: For `CCCCCCCCCCCC(=O)OCCC`, which logP is on record?
A: 6.11

Q: With `CCCCCCCCCCCCCCCC(=O)OC` as the molecule, how does the logP read?
A: 7.38

Q: Which logP does the source give for `CCCCCCCCCCCCCCCCCC(=O)OC` here?
A: 8.35

Q: For `CCCCCCCCCCCCCC(=O)OC`, which logP is on record?
A: 6.41

Q: For `CCCCC/C=C\C/C=C\CCCCCCCC(=O)OC`, which logP is on record?
A: 6.82

Q: With `CCCCCCCCCCCCCCCCCCCCCC(=O)OC` as the molecule, how does the logP read?
A: 10.2
